From US20060188909A1, “Business methods for assessing nucleic acids” (Medical College of Ohio, priority 2005, published 2006) come the findings set out here.

Series [1] relates to cytochrome p450 IA1 (CYPIAI) gene expression. Kind of series: Northern analysis of CYPIAI induction in BEP2D cells. In kind it is cell-based, human. Conditions: 10 μM, varying times, vs 0.1% DMSO control. The method, then:
(§1) In a second set of experiments, multiplex competitive reverse transcriptase polymerase chain reaction (MC RT-PCR) with competitive templates were prepared by the Celi method to evaluate the cytochrome p450 (CYP) IAI gene in β-napthoflavone-exposed BEP2D cells. The induction of CYPIAI gene expression was evaluated using both MC RT-PCR with Celi competitive templates, and Northern analysis. Competitive templates were prepared for both the CYPIAI and GAPDH genes. The primers used to prepare the competitive template for GAPDH were: […]
RNA from BEP2D cells incubated for varying times with […] (10 μM) was either electrophoresed on a 1% LE formaldehyde denaturing gel for Northern analysis or MC RT-PCR amplified, as described above. For Northern analysis, following transfer of the RNA to GeneScreen, the filters were hybridized with ^32P-labeled CYPIAI cDNA.
FIG. 36A illustrates Northern analysis of RNA obtained from BEP2D cells that were treated with 0.1% DMSO as a control, or, β-napthoflavone in an effort to induce cytochrome p450 IA1 (CYPIAI). FIG. 36B illustrates DNA PCR-amplified from serial dilutions of cDNA from the same cells used in FIG. 36SA. The cDNA was co-amplified in the presence of competitive templates for GAPDH and CYPIAI, according to some embodiments of the instant invention.

Series [2] shares this test system. Kind of series: MC RT-PCR with Celi competitive templates, CYPIAI induction in BEP2D cells. In kind it is cell-based, human. Conditions: 10 μM, exposed vs control cells, about the same cDNA loaded. Here is the method:
as §1
The PCR amplification conditions were the same as described for experiments using the competitive templates prepared for GAPDH and GSHPx by the Higuchi method except the annealing temperature was 55 degrees centigrade and the amplification was carried out for 38 cycles.
Because the native and competitive templates separate without prior restriction endonuclease digestion, samples were taken directly from the PCR reaction tube and applied to ethidium bromide stained 3% Nusieve, 1% LE agarose gels. It was then possible to quantify the products by taking a negative photograph of the gel using Polaroid 665 positive/negative instant film, subjecting the negative photograph to densitometry. […]

Regarding `O=c1cc(-c2ccccc2)oc2ccc3ccccc3c12` [β-napthoflavone], the “gene expression of the CYPIAI gene (Northern analysis)” value in series [1] is “increase”. In addition, the “band representing the native CYPIAI gene (MC RT-PCR, GAPDH reference)” value in series [2] is on record as “much more strongly represented”.
